Patent publication US8859567B2, “Hydrate of 1-{(2S)-2-amino-4-[2,4-bis(trifluoromethyl)-5,8-di-hydropyrido[3,4-D]pyrimidin-7(6H)-yl]-4-oxobutyl}-5,5-difluoro-piperidin-2-one tartrate” (LG Life Sciences Ltd., priority 2010, dated 2014)
Where a name gives a salt, the structure may show the parent alone.

Assays:
Assay type in all cases: physicochemical
[1] = Dynamic vapor adsorption/desorption analysis; settings: for change of crystal form with the change of humidity / weight change according to the change of external humidity: 5˜95% RH; for weight change according to the change of external humidity: 25° C.
Protocol: The dynamic vapor adsorption/desorption data were collected on VTI-SA Vapor Sorption Analyzer. While maintaining 25° C., the vapor adsorption and desorption were repeated three times at intervals of 5% RH in the range of relative humidity (RH) 5˜95%. The samples were not dried prior to the analysis. The equilibrium standard used for analysis was that the weight change within 2 minutes is less than 0.01%.

[2] = Thermal stability of the crystal form I and II, HPLC analysis
Protocol: (§1) After 2 weeks, 4 weeks and 8 weeks, each sample was removed from Duma bottle and analyzed by XRD for identifying any change of the crystal form and HPLC for identifying the stability. For HPLC analysis the sample was dissolved in a mixture of acetonitrile/water/trifluoroacetic acid=30/70/0.1 (v/v/v) and then subjected to the analysis. The conditions for HPLC analysis are as follows:
Column: Atlantis dC18 (4.6 mm I.D×250 mm L, Particle Size 5, μm, Waters)
Column Temperature: 10° C.
Mobile phase A: MeCN/TFA=100/0.1 (v/v)
Mobile phase B: H2O/TFA=100/0.1 (v/v)
Total analysis time: 55 min.

[3] = Thermal stability of the crystal form I and II, XRD analysis for change of crystal form
Protocol: About 20 mg of the sample was charged in the sample holder and mounted on Powder X-ray diffractometer to obtain the diffraction pattern in the range of 3˜40°/2θ. The diffraction patterns as obtained are attached to the present specification as FIGS. 1, 5 and 10, respectively. Specific conditions for analysis are as follows.
as §1, with “analysis.” for “analysis. The conditions for HPLC analysis are as follows:”

[4] = Determination of density (bulk-density, tap-density, Carr index); settings: for Bulk-density: 50 ml measuring cylinder; for Tap-density: ERWEKA densitometer, impulses 250 times
Protocol: Here, the samples were slowly introduced so that they are not closely contacted with each other. After reading a scale on the measuring cylinder, the weight thereof was measured to calculate the bulk-density. After measuring the bulk-density, the measuring cylinder containing the sample was put on ERWEKA densitometer and then subjected to impulses 250 times to measure the tapdensity (Table 5). […] The Can index was calculated from the bulk-density and the tap-density. […] Since it is generally understood that the lower the Carr index, the better the flowability, it could be identified by comparing the Carr indexes that the crystal form I can be easily handled in processing procedures including tabletting as compared to the crystal form II.

[5] = Powder X-ray diffraction test and weight change of the crystal form III during moisture adsorption at room temperature under atmosphere
Protocol: The crystal form III was placed on a XRD holder and subjected to XRD test over the time (after 30 minutes, 1 hour and 5 hours) while allowing the moisture adsorption at room temperature under atmosphere (see FIG. 15). In addition, the weight change at room temperature under atmosphere was recorded by times to obtain a graph (see FIG. 14).

change of crystal form with the change of humidity [1] | weight change according to the change of external humidity [1] [%] | stability (HPLC) ([2]; 40° C./75% RH, 0 week) [%] | stability (HPLC) ([2]; 40° C./75% RH, 2 weeks) [%] | stability (HPLC) ([2]; 40° C./75% RH, 4 weeks) [%] | stability (HPLC) ([2]; 40° C./75% RH, 8 weeks) [%] | stability (HPLC) ([2]; 60° C./5% RH, 0 week) [%] | stability (HPLC) ([2]; 60° C./5% RH, 2 weeks) [%] | stability (HPLC) ([2]; 60° C./5% RH, 4 weeks) [%] | stability (HPLC) ([2]; 60° C./5% RH, 8 weeks) [%] | change of the crystal form by XRD analysis ([3]; 40±2° C., 75±5% RH or 60±2° C., 5±5% RH, up to 8 weeks) | Bulk-density [4] [g/mL] | Tap-density [4] [g/mL] | moisture desorption on decreasing the humidity ([1]; after adsorption up to 95% RH) [%] | time to conversion into the crystal form I [5] | weight increase at 75% RH ([1]; moisture adsorption, 75% RH) [%] | time to conversion into the crystal form I in the accelerating stability test ([3]; 40° C./75% RH) [weeks] | change of the crystal form by XRD analysis ([3]; 40° C./75% RH, at 8 week) | SMILES
not changed | ≤ 0.8 | 99.4 | 99.3 | 99.2 | 99.2 | 99.4 | 98.8 | 98.6 | 98.4 | did not show any change | 0.45 | 0.54 |  |  |  |  |  | N[C@@H](CC(=O)N1CCc2c(nc(C(F)(F)F)nc2C(F)(F)F)C1)CN1CC(F)(F)CCC1=O [crystal form I, 1-{(2S)-2-amino-4-[2,4-bis(trifluoromethyl)-5,8-dihydropyrido[3,4-d]pyrimidin-7(6H)-yl]-4-oxo-butyl}-5,5-difluoropiperidin-2-one tartrate]
 | ≥ 3.5 |  |  |  |  |  |  |  |  |  |  |  | ≤ 0.6 | within about one hour |  |  |  | N[C@@H](CC(=O)N1CCc2c(nc(C(F)(F)F)nc2C(F)(F)F)C1)CN1CC(F)(F)CCC1=O.O=C(O)C(O)C(O)C(=O)O [crystal form III]
converted into the crystal form I | ≥ 4.0 | 98.4 | 98.4 | 98.3 | 98.2 | 98.4 | 98.1 | 97.8 | 97.5 |  | 0.34 | 0.44 |  |  | 3.7 | ≤ 8 | converted into the crystal form I | N[C@@H](CC(=O)N1CCc2c(nc(C(F)(F)F)nc2C(F)(F)F)C1)CN1CC(F)(F)CCC1=O.N[C@@H](CC(=O)N1CCc2c(nc(C(F)(F)F)nc2C(F)(F)F)C1)CN1CC(F)(F)CCC1=O.O.O=C(O)C(O)C(O)C(=O)O.O=C(O)C(O)C(O)C(=O)O [crystal form II]
